From the NIST ThermoML archive (doi:10.1021/je3007666)
± gives the expanded uncertainty stated by the source.

What was measured:
[1] = relative permittivity at zero frequency (dimensionless); xn = mol fraction of the nth substance listed; settings: 100 kPa, Liquid, Dielectrometer
[2] = relative permittivity at zero frequency (dimensionless); settings: 100 kPa, Liquid, Dielectrometer

| SMILES | relative permittivity at zero frequency ([2]; 288.15 K) | relative permittivity at zero frequency ([2]; 293.15 K) | relative permittivity at zero frequency ([2]; 298.15 K) | relative permittivity at zero frequency ([2]; 303.15 K) | relative permittivity at zero frequency ([2]; 308.15 K) | relative permittivity at zero frequency ([1]; 288.15 K, x2 = 0) | relative permittivity at zero frequency ([1]; 293.15 K, x2 = 0) | relative permittivity at zero frequency ([1]; 298.15 K, x2 = 0) | relative permittivity at zero frequency ([1]; 303.15 K, x2 = 0) | relative permittivity at zero frequency ([1]; 308.15 K, x2 = 0) | other results |
| --- | --- | --- | --- | --- | --- | --- | --- | --- | --- | --- | --- |
| CCC(C)O (stereo not given) [butan-2-ol] + CC(C)CO |  |  |  |  |  |  |  |  |  |  | relative permittivity at zero frequency ([1]; 288.15 K, x1 = 1): 18.47 ± 0.06; relative permittivity at zero frequency ([1]; 293.15 K, x1 = 1): 17.51 ± 0.06; relative permittivity at zero frequency ([1]; 298.15 K, x1 = 1): 16.6 ± 0.06; relative permittivity at zero frequency ([1]; 303.15 K, x1 = 1): 15.75 ± 0.06; relative permittivity at zero frequency ([1]; 308.15 K, x1 = 1): 14.94 ± 0.06 |
| CC(C)(C)O [2-methylpropan-2-ol] + CC(C)CO |  |  |  |  |  |  |  |  |  |  | relative permittivity at zero frequency ([1]; 288.15 K, x1 = 1): 14.49 ± 0.06; relative permittivity at zero frequency ([1]; 293.15 K, x1 = 1): 13.38 ± 0.06; relative permittivity at zero frequency ([1]; 298.15 K, x1 = 1): 12.49 ± 0.06; relative permittivity at zero frequency ([1]; 303.15 K, x1 = 1): 11.34 ± 0.06; relative permittivity at zero frequency ([1]; 308.15 K, x1 = 1): 10.4 ± 0.06 |
| CCCCO [butan-1-ol] + CC(C)(C)O |  |  |  |  |  | 19.01 ± 0.06 | 18.28 ± 0.06 | 17.58 ± 0.06 | 16.91 ± 0.06 | 16.26 ± 0.06 |  |
| CC(C)(C)O [2-methylpropan-2-ol] | 14.49 ± 0.06 | 13.38 ± 0.06 | 12.49 ± 0.06 | 11.34 ± 0.06 | 10.4 ± 0.06 |  |  |  |  |  |  |
| CCCCO [butan-1-ol] + CC(C)CO |  |  |  |  |  | 19.01 ± 0.06 | 18.28 ± 0.06 | 17.58 ± 0.06 | 16.91 ± 0.06 | 16.26 ± 0.06 |  |
| CCCCO [butan-1-ol] + CCC(C)O |  |  |  |  |  | 19.01 ± 0.06 | 18.28 ± 0.06 | 17.58 ± 0.06 | 16.91 ± 0.06 | 16.26 ± 0.06 |  |
| CCCCO [butan-1-ol] | 19.01 ± 0.06 | 18.28 ± 0.06 | 17.58 ± 0.06 | 16.91 ± 0.06 | 16.26 ± 0.06 |  |  |  |  |  |  |

Continued, in another order:

| relative permittivity at zero frequency ([2]; 288.15 K) | relative permittivity at zero frequency ([2]; 293.15 K) | relative permittivity at zero frequency ([2]; 298.15 K) | relative permittivity at zero frequency ([2]; 303.15 K) | relative permittivity at zero frequency ([2]; 308.15 K) | relative permittivity at zero frequency ([1]; 288.15 K, x2 = 0) | relative permittivity at zero frequency ([1]; 293.15 K, x2 = 0) | relative permittivity at zero frequency ([1]; 298.15 K, x2 = 0) | relative permittivity at zero frequency ([1]; 303.15 K, x2 = 0) | relative permittivity at zero frequency ([1]; 308.15 K, x2 = 0) | SMILES | other results |
| --- | --- | --- | --- | --- | --- | --- | --- | --- | --- | --- | --- |
| 18.47 ± 0.06 | 17.51 ± 0.06 | 16.6 ± 0.06 | 15.75 ± 0.06 | 14.94 ± 0.06 |  |  |  |  |  | CCC(C)O (stereo not given) [butan-2-ol] |  |
| 19.51 ± 0.06 | 18.71 ± 0.06 | 17.96 ± 0.06 | 17.23 ± 0.06 | 16.53 ± 0.06 |  |  |  |  |  | CC(C)CO [2-methyl-1-propanol] |  |
|  |  |  |  |  | 18.47 ± 0.06 | 17.51 ± 0.06 | 16.6 ± 0.06 | 15.75 ± 0.06 | 14.94 ± 0.06 | CCC(C)O (stereo not given) [butan-2-ol] + CC(C)(C)O |  |
